# Source: patent US20100137266A1, “TREATMENT OF INSULIN RESISTANCE AND DISORDERS ASSOCIATED THEREWITH” (UNIVERSITETET I OSLO, priority 2006, published 2010)
# Test: Stability in bovine plasma
# Type: in vitro ADME
# Conditions: 300 μM in citrated bovine plasma, 37° C., 24 h; HPLC detection at 210 nm
# Experimental: A stock solution of 22(S)-hydroxycholesterol diglutarate was prepared by adding 50 mg of the compound to a 50 ml volumetric flask, followed by 0.5 ml DMSO and deionised water to 50 ml, giving a final concentration of 1.0 mg/ml. The plasma solution was prepared by adding 0.38 ml of the 22(S)-hydroxycholesterol diglutarate stock solution to 1.62 ml of citrated bovine plasma, giving a final concentration of 300 μM. The citrated bovine plasma was incubated at 37° C. for 24 h. Proteins were discarded from the samples by centrifugal filtration before 50 μl volume of the filtrate was injected with an autosampler onto an analytical column (C18 reverse phase system) The mobile phase consisted of a gradient composed of water and acetonitrile (20→50% from 0 to 10 min, the mobile phase increased from 0.5 ml/min→1.0 ml/min in 10 minutes). Eluted compounds were detected at 210 nm.
compound,measurement,value
"CC(C)CCC(OC(=O)CCCC(=O)O)[C@@H](C)C1CCC2C3CC=C4CC(OC(=O)CCCC(=O)O)CCC4(C)C3CCC21C (stereo partly drawn) [22(S)-hydroxycholesterol diglutarate, 22(S)-Hydroxycholesterol Diglutarate]",detection of compound after incubation in plasma,not possible to detect
